Results: patent publication US8937078B2, “Quinazolinones as prolyl hydroxylase inhibitors” (Janssen Pharmaceutica NV, priority 2009, dated 2015)

Experiments:
human PHD2 (PHD2181-417) = molecular target: T1, human PHD2 (PHD2181-417) (Homo sapiens, UniProt Q9GZT9); assay: PHD enzymatic assay ([14C]-succinic acid production); type: biochemical; conditions: PHD2181-417, HIF-1α peptide 10 μM, average of results; read-out: Enzyme pIC50 (converted)
T1 construct: Smt (SUMO) tag (cleaved yes); made in house; host or cells: E. coli BL21 (pBAD vector)
How it was run: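 Activity measured as [14C]-succinic acid formed from [5-14C]-2-oxoglutarate over 10 minutes, with peptide substrate at 10 μM, in Tris-HCl pH 7.5 buffer containing catalase, DTT and ascorbate. Unreacted oxoglutarate removed by DNP derivatisation; supernatant beta-counted.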

Hep-3B cells = assay: Cellular assay: erythropoietin secretion in Hep-3B cells; type: cell-based, human; conditions: Homo sapiens, Hep3B, 100 μM compound, 24 hours, percent of EPO secretion relative to assay control compound 7-[(4-Chloro-phenyl)-(5-methyl-isoxazol-3-ylamino)-methyl]-quinolin-8-ol, read-out: Cellular % EPO Stimulation
How it was run: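 Hep-3B cells in DMEM with 10% FBS, treated 24 h after plating with compounds at 100 μM final for a further 24 h. Secreted EPO in supernatant measured by MSD electrochemiluminescence sandwich immunoassay with anti-EPO detection antibody.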

T1 sequence (Q9GZT9 181-417): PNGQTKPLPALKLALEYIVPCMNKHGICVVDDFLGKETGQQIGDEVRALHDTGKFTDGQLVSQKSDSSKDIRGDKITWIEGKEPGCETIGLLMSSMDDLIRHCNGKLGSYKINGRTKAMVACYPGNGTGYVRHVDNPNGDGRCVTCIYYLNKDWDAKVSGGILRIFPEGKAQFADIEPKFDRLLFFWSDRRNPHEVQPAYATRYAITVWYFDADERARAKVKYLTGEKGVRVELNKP

| IC50 (human PHD2 (PHD2181-417)) | SMILES | Emax at 100 µM (Hep-3B cells) |
| --- | --- | --- |
| 0.0794 µM | Cc1ccccc1-c1ccc2c(=O)[nH]c(-n3cc(C(=O)O)cn3)nc2c1 [Example 188, 1-(4-Oxo-7-o-tolyl-3,4-dihydro-quinazolin-2-yl)-1H-pyrazole-4-carboxylic acid] | 11% |
| 0.0316 µM | O=C(Nc1ccccc1)Nc1ccc2nc(-n3cc(C(=O)O)cn3)[nH]c(=O)c2c1 [Example 168, 1-[4-Oxo-6-(3-phenyl-ureido)-3,4-dihydro-quinazolin-2-yl]-1H-pyrazole-4-carboxylic acid] | 4% |
| 0.0251 µM | O=C(O)c1cnn(-c2nc3ccc(NCc4c(Cl)cccc4Cl)cc3c(=O)[nH]2)c1 [Example 181, 1-[6-(2,6-Dichloro-benzylamino)-4-oxo-3,4-dihydro-quinazolin-2-yl]-1H-pyrazole-4-carboxylic acid] | 118% |
| 0.0251 µM | O=C(O)c1cnn(-c2nc3ccc(Oc4cccc(Cl)c4)cc3c(=O)[nH]2)c1 [Example 30, 1-[6-(3-Chloro-phenoxy)-4-oxo-3,4-dihydro-quinazolin-2-yl]-1H-pyrazole-4-carboxylic acid] | 15% |
| 0.0251 µM | O=C(O)c1cnn(-c2nc3ccc(-c4ccccc4C(F)(F)F)cc3c(=O)[nH]2)c1 [Example 201, 1-[4-Oxo-6-(2-trifluoromethyl-phenyl)-3,4-dihydro-quinazolin-2-yl]-1H-pyrazole-4-carboxylic acid] | 78% |
| 0.0398 µM | O=C(O)c1cnn(-c2nc3ccc(NCc4c(F)cccc4F)cc3c(=O)[nH]2)c1 [Example 176, 1-[6-(2,6-Difluoro-benzylamino)-4-oxo-3,4-dihydro-quinazolin-2-yl]-1H-pyrazole-4-carboxylic acid] | 26% |

Further lines, the compound ahead of its results:

| SMILES | IC50 (human PHD2 (PHD2181-417)) | Emax at 100 µM (Hep-3B cells) |
| --- | --- | --- |
| Cc1cc(C)cc(Oc2cc3c(=O)[nH]c(-n4cc(C(=O)O)cn4)nc3cc2F)c1 [Example 94, 1-[6-(3,5-dimethyl-phenoxy)-7-fluoro-4-oxo-3,4-dihydro-quinazolin-2-yl]-1 H-pyrazole-4-carboxylic acid] | 0.02 µM | 90% |
| O=C(O)c1cnn(-c2nc3ccc(C(=O)N4CCCC4)cc3c(=O)[nH]2)c1 [Example 162, 1-[4-Oxo-6-(pyrrolidine-1-carbonyl)-3,4-dihydro-quinazolin-2-yl]-1H-pyrazole-4-carboxylic acid] | 0.0316 µM | 15% |
| O=C(O)c1cnn(-c2nc3ccc(OC4CCCCC4)cc3c(=O)[nH]2)c1 [Example 102, 1-(6-cyclohexyloxy-4-oxo-3,4-dihydro-quinazolin-2-yl)-1H-pyrazole-4-carboxylic acid] | 0.02 µM | 59% |
| O=C(O)c1cnn(-c2nc3ccc(Oc4cc(F)cc(C(F)(F)F)c4)cc3c(=O)[nH]2)c1 [Example 97, 1-[6-(3-fluoro-5-trifluoromethyl-phenoxy)-4-oxo-3,4-dihydro-quinazolin-2-yl]-1H-pyrazole-4-carboxylic acid] | 0.02 µM | 37% |
| COc1ccc(Oc2ccc3nc(-n4cc(C(=O)O)cn4)[nH]c(=O)c3c2)cc1 [Example 41, 1-[6-(4-Methoxy-phenoxy)-4-oxo-3,4-dihydro-quinazolin-2-yl]-1H-pyrazole-4-carboxylic acid] | 0.02 µM | 112% |
| Cc1cc2nc(-n3cc(C(=O)O)cn3)[nH]c(=O)c2cc1Oc1cccc(C(F)(F)F)c1 [Example 93, 1-[7-methyl-4-oxo-6-(3-trifluoromethyl-phenoxy)-3,4-dihydro-quinazolin-2-yl]-1H-pyrazole-4-carboxylic acid] | 0.02 µM | 153% |
| COc1ccc(S(=O)(=O)c2cc3c(=O)[nH]c(-n4cc(C(=O)O)cn4)nc3cc2Cl)cc1OC [Example 71, 1-[7-Chloro-6-(3,4-dimethoxy-benzenesulfonyl)-4-oxo-3,4-dihydro-quinazolin-2-yl]-1H-pyrazole-4-carboxylic acid] | 0.0158 µM | 16% |
